According to article PMC8551967 (Frontiers in Microbiology, 2021):
Non-standard residues stand in square brackets, D forms with d. Residues, ends and D or L forms follow the SMILES beside them. *: point of attachment. Leu(ol) = CC(C)C[C@H](N)CO; Octanoyl = CCCCCCCC(=O)*; Aib = CC(C)(N)C(=O)O

What was measured:
[1] = system: Pyricularia oryzae IT10 strain on barley leaves (cv. Alora); details: in vivo
[2] = system: Pyricularia oryzae IT10 strain on rice (cv. Vialone Nano); details: in vivo
[3] = system: Pyricularia oryzae (strains AP, Guy11, I203 and IT10); details: for inhibition of fungal growth compared to the untreated control: 96 h, 50 μM, pH 6.85
[4] = system: P. oryzae (IT10 strain) conidia; format: cell-based, Pyricularia oryzae
[5] = system: P. oryzae AP strain; format: cell-based, Pyricularia oryzae
[6] = system: P. oryzae Guy11 strain; format: cell-based, Pyricularia oryzae
[7] = system: P. oryzae I203 strain; format: cell-based, Pyricularia oryzae
[8] = system: P. oryzae IT10 strain; format: cell-based, Pyricularia oryzae
[9] = system: P. oryzae conidia; format: cell-based, Pyricularia oryzae; details: pH 7

## CCCCCCCC(=O)NC(C)(C)C(=O)N[C@@H](CCCCN)C(=O)N[C@@H](CC(C)C)C(=O)NC(C)(C)C(=O)NCC(=O)NCC(=O)N[C@@H](CC(C)C)C(=O)NC(C)(C)C(=O)NCC(=O)N[C@H](C(=O)N[C@@H](CC(C)C)C(N)=O)[C@@H](C)CC [Pep 2Rink] (Octanoyl-[Aib]KL[Aib]GGL[Aib]GIL-NH2)
[1]
  reduction of blast lesion area in comparison with untreated barley leaves: about 92%
  representative lesions on barley leaves (in words): Almost no lesions
  significance of lesion inhibition compared to the Control: Significant inhibition
[2]
  reduction in Disease Severity Index (DSI): 65-70%
  representative lesions on rice leaves (in words): reduced lesions
[3]
  inhibition of fungal growth compared to the untreated control: more than 90%

## CCCCCCCC(=O)NC(C)(C)C(=O)N[C@@H](CCCCN)C(=O)N[C@@H](CC(C)C)C(=O)NC(C)(C)C(=O)NCC(=O)NCC(=O)N[C@@H](CC(C)C)C(=O)NC(C)(C)C(=O)NCC(=O)N[C@H](C(=O)N[C@H](CO)CC(C)C)[C@@H](C)CC [Pep 2] (Octanoyl-[Aib]KL[Aib]GGL[Aib]GI[Leu(ol)])
[1]
  reduction of blast lesion area in comparison with untreated barley leaves: ineffective
[4]
  morphology and germination of treated conidia: important morphological changes
[3]
  inhibition of fungal growth compared to the untreated control: more than 90%

## CCCCCCCC(=O)NC(C)(C)C(=O)N[C@@H](CCCCN)C(=O)N[C@@H](CCCCN)C(=O)N[C@@H](CC(C)C)C(=O)NC(C)(C)C(=O)NCC(=O)N[C@H](C(=O)N[C@H](CO)CC(C)C)[C@@H](C)CC [Pep 4C] (Octanoyl-[Aib]KKL[Aib]GI[Leu(ol)])
[1]
  reduction of blast lesion area in comparison with untreated barley leaves: ~70%
  significance of lesion inhibition compared to the Control: Significant inhibition
[4]
  morphology and germination of treated conidia: important morphological changes
[3]
  inhibition of fungal growth compared to the untreated control: more than 90%

## CCCCCCCC(=O)NC(C)(C)C(=O)NCC(=O)N[C@@H](CC(C)C)C(=O)NC(C)(C)C(=O)N[C@@H](CCCCN)C(=O)N[C@@H](CCCCN)C(=O)N[C@@H](CC(C)C)C(=O)NC(C)(C)C(=O)NCC(=O)N[C@H](C(=O)N[C@H](CO)CC(C)C)[C@@H](C)CC [Pep 4]
[1]
  reduction of blast lesion area in comparison with untreated barley leaves: higher than 95%
  significance of lesion inhibition compared to the Control: Significant inhibition
[2]
  reduction in Disease Severity Index (DSI): 65-70%
[4]
  morphology and germination of treated conidia: important morphological changes
[3]
  inhibition of fungal growth compared to the untreated control: more than 90%

## CCCCCCCC(=O)NC(C)(C)C(=O)N[C@@H](CCCCN)C(=O)N[C@@H](CC(C)C)C(=O)NC(C)(C)C(=O)N[C@@H](CCCCN)C(=O)NCC(=O)N[C@@H](CC(C)C)C(=O)NC(C)(C)C(=O)N[C@@H](CCCCN)C(=O)N[C@H](C(=O)N[C@H](CO)CC(C)C)[C@@H](C)CC [Pep 5] (Octanoyl-[Aib]KL[Aib]KGL[Aib]KI[Leu(ol)])
[1]
  reduction of blast lesion area in comparison with untreated barley leaves: higher than 95%
  significance of lesion inhibition compared to the Control: Significant inhibition
[2]
  reduction in Disease Severity Index (DSI): 65-70%
  representative lesions on rice leaves (in words): reduced lesions
[4]
  morphology and germination of treated conidia: important morphological changes
[3]
  inhibition of fungal growth compared to the untreated control: more than 90%

## H-FKR[Aib]KK[Aib]FKK[Aib]WNWK-NH2 [Pep 12]
[3]
  inhibition of fungal growth (in words): relatively little or no inhibition against one or two strains

## Palmitoyl-His-Ala-Ala-His-Lys(ε-Ser)-Gly-COOH [Pep 19]
[5]
  inhibition of AP strain (in words): did not inhibit
[6]
  inhibition of Guy11 strain (in words): did not inhibit
[7]
  inhibition of I203 strain (in words): did not inhibit
[8]
  inhibition of IT10 strain (in words): partially inhibited
[4]
  morphology and germination of treated conidia: germinated normally and did not show any morphological alteration
[3]
  inhibition of fungal growth (in words): relatively little or no inhibition against one or two strains

## nOct-Aib-Gly-Leu-Aib-Gly-Gly-Leu-Aib-Gly-Ile-Lol [Trichogin, Trichogin GA IV, reference compound]
[1]
  reduction of blast lesion area in comparison with untreated barley leaves: ineffective
[3]
  activity of trichogin against P. oryzae in vitro: ineffective

## nOct-Aib-Gly-Leu-Aib-Gly-Gly-Leu-Api-Gly-Ile-Lol [Pep 8Api]
[1]
  reduction of blast lesion area in comparison with untreated barley leaves: higher than 95%
  significance of lesion inhibition compared to the Control: Significant inhibition
[2]
  reduction in Disease Severity Index (DSI): 50-55%
[4]
  morphology and germination of treated conidia: important morphological changes
[3]
  inhibition of fungal growth (in words): relatively little or no inhibition against one or two strains

## nOct-Aib-Gly-Leu-Aib-Gly-Lys-Leu-Aib-Gly-Ile-Lol [Pep 22]
[1]
  reduction of blast lesion area in comparison with untreated barley leaves: ineffective
[3]
  inhibition of fungal growth (in words): relatively little or no inhibition against one or two strains

## nOct-Aib-Gly-Leu-Aib-Lys-Aib-Leu-Aib-Gly-Ile-Lol [Pep 6]
[4]
  morphology and germination of treated conidia: germinated normally and did not show any morphological alteration
[9]
  mycelium growth in the presence of the peptide versus untreated control: grew better than the untreated control

## nOct-Aib-Gly-Leu-Aib-Lys-Gly-Leu-Aib-Gly-Ile-Lol [Pep 3]
[2]
  reduction in Disease Severity Index (DSI): inefficacy

## nOct-Aib-Gly-Leu-Aib-Lys-Lys-Leu—Leu-NH2 [Pep 4C1]
[1]
  reduction of blast lesion area in comparison with untreated barley leaves: ineffective
[3]
  inhibition of fungal growth (in words): relatively little or no inhibition against one or two strains

## nOct-Aib-Lys-Leu-Aib-Gly-Lys-Leu-Aib-Gly-Ile-Lol [Pep 7]
[1]
  reduction of blast lesion area in comparison with untreated barley leaves: higher than 95%
  significance of lesion inhibition compared to the Control: Significant inhibition
[2]
  reduction in Disease Severity Index (DSI): 65-70%
[3]
  inhibition of fungal growth (in words): relatively little or no inhibition against one or two strains

## nOct-Aib—Lys-Lys-Leu-Aib-Gly-Ile-Leu-NH2 [Pep 4C2]
[1]
  reduction of blast lesion area in comparison with untreated barley leaves: about 75%
  significance of lesion inhibition compared to the Control: Significant inhibition
[2]
  reduction in Disease Severity Index (DSI): 65-70%
  representative lesions on rice leaves (in words): reduced lesions
[3]
  inhibition of fungal growth (in words): relatively little or no inhibition against one or two strains
